# US8647867B2, “Cell cultivation method and cell culture” (National University Corportion Okayama University, priority 2005, dated 2014)
# Columns and labels:
# [1] = system: human hepatocyte; assay: Metabolic ability of ammonia in cultured human hepatocyte; format: cell-based; settings: culture without insert; for ammonia metabolic rate: ammonium sulfate 0.56 mM, after 24 hours
# Text: (§1) Donor liver judged to be unsuitable for transplantation in the United States was obtained from National Disease Research Interchange via HUMAN & ANIMAL BRIDGING […] ORGANIZATION laboratory (Ichikawa city, Chiba prefecture, responsible person) in the form of liver block (130 g) which was then separated into hepatocyte in the same manner as for the above-described isolation of porcine hepatocyte in Example 1.
# [2] = system: porcine hepatocyte; assay: Metabolic ability of diazepam in cultured porcine hepatocyte
# Method: Large white male pigs (body weight: 15 to 20 kg) were used. 1.5 ml of ketalar for intramuscular injection was injected to cause sedation and then, auricular vein was acquired and 5 mg/kg of isozol and 1 mg/kg of musculax were administered intravenously to obtain muscle relaxation. After endotracheal intubation, peritoneotomy was performed under general anesthesia with sevoflurene under controlled ventilation by an artificial respirator. A liver lateral region of the pig was surgically excised (about 80 g), perfusion was performed through excised cross-section portal vein and hepatic vein. First, the excised liver was perfused with a primary perfusion solution (sodium chloride 9 g/L, potassium chloride 0.42 g/L, sodium hydrogen carbonate 2.1 g/L, glucose 0.9 g/L, HEPES 4.78 g/L, ethylenediamine tetraacetic acid (EDTA) 0.37 g/L), subsequently, perfused with a secondary perfusion solution containing no EDTA (sodium chloride 9 g/L, potassium chloride 0.42 g/L, sodium hydrogen carbonate 2.1 g/L, glucose 0.9 g/L, HEPES 4.78 g/L). Thereafter, perfusion of the liver, kept at 39° C., was done with a dispase solution (sodium chloride 9 g/L, potassium chloride 0.42 g/L, sodium hydrogen carbonate 2.1 g/L, glucose 0.9 g/L, HEPES 4.78 g/L, dispase 8.4 g/L) (available from Godo Shusei K. K., Tokyo, Japan) and finally, with a collagenase solution (sodium chloride 9 g/L, potassium chloride 0.42 g/L, sodium hydrogen carbonate 2.1 g/L, glucose 0.9 g/L, HEPES 4.78 g/L, collagenase 0.5 g/L (available from Nitta Gelatin Inc., Osaka, Japan), calcium chloride monohydrate 0.55 g/L). […]
# The metabolic abilities of diazepam in cultured porcine hepatocyte were measured and compared between groups A and B. Diazepam (1 pg/ml) was added to porcine hepatocyte media on days 1, 7 and 14 of culture, and the concentration of diazepam in the media after 24 hours was measured (entrusted to SRL K. K.), and the metabolic rate was calculated.
# [3] = system: human hepatocyte; assay: Morphological study of cultured human hepatocyte by phase-contrast and electron microscope; format: cell-based; settings: culture without insert, phase-contrast microscope days 1 and 5, electron microscope day 5
# Method: as §1
# Recently, it has been known that when three-dimensional culture of cells is performed on scaffold, cell functions are improved and maintained. […] In contrast, human hepatocytes cultured with collagen type I (monolayer) (group B) adhered in flat form to the surface of the culture flask (see, Photograph 1 in FIG. 7(a)). […] As a result, it was clarified that it is more suitable for culture of human hepatocyte to use PuraMatrix of SEQ ID NO:1.
# [4] = system: human pancreatic islet; assay: Insulin production ability of cultured human pancreatic islet; format: cell-based
# Method: Healthy isolated human pancreatic islets provided from Alberta University in Canada (those skilled in the art can obtain them from Canada, Alberta University, human pancreatic islet transplantation program, Dr. Jonathan R T. Lakey) were seeded in a T25 10 culture flask.
# Insulin production abilities of cultured human pancreatic islet were determined and compared between groups A and B. Using low glucose DMEM (glucose concentration: […]) (available from GIBCO, Oakland, N.J.) supplemented with 10% FCS, nicotineamide 10 mM and penicillin G/streptomycin, cells were cultured for 24 hours until 60% confluency (low glucose). Then, the medium was changed for high glucose DMEM (glucose concentration: […]) (available from GIBCO, Oakland, N.J.) supplemented with 10% FCS, nicotineamide 10 mM and penicillin G/streptomycin, and cells were cultured for 6 hours (high glucose). After high glucose culture, the medium was exchanged for low glucose DMEM and cells were cultured for 6 hours (low glucose (after)). After respective culture operations, the production amount of insulin in the culture medium (μg/l) was determined by an immunostaining method using a rabbit anti-human insulin antibody (available from DakoCytomation K. K., Kyoto, Japan).
# [5] = system: human pancreatic islet; assay: Morphological study of cultured human pancreatic islet by electron microscope (morphological criteria, points); format: cell-based; settings: human pancreatic islets, day 5 of culture
# Method: As the inspection method of cultured pancreatic islets, a method is mentioned in which the following 4 items as morphological criteria are evaluated at 5 levels (1 to 5 points) (see, literature: Matsumoto S, Qualley S A, Goel S, et al., Effect of the two-layer (University of Wisconsin solution-Perfluorochemical plus 02) method of pancreas preservation on human islet isolation as assessed by Edmonton isolation protocol. Transplantation 2002; 74: 1414).
# Evaluation is performed at 5 levels of “flat: 1 point”, “approximately flat: 2 points”, “irregularly spherical: 3 points”, “approximately spherical: 4 points”, and “spherical: 5 points”.
# Evaluation is performed at 5 levels of “irregular: 1 point”, “approximately irregular: 2 points”, “somewhat well-rounded: 3 points”, “approximately well-rounded: 4 points”, and “well-rounded: 5 points”. Among these, “well-rounded: 5 points” is most preferable.
# Evaluation is performed at 5 levels of “fragmented: 1 point”, “approximately fragmented: 2 points”, “somewhat solid/compact: 3 points”, “approximately solid/compact: 4 points”, and “solid/compact: 5 points”. Among these, “solid/compact: 5 points” is most preferable.
# Evaluation is performed at 5 levels of “smaller than 100 μm for individual cultured pancreatic islets (all <100 μm): 1 point”, “100 to 150 μm for individual cultured pancreatic islets: 2 points”, “[…] for individual cultured pancreatic islets: 3 points”, “150 to 200 μm for individual cultured pancreatic islets: 4 points”, and “larger than 200 μm for at least 10% of individual cultured pancreatic islets (>10%>200 μm): 5 points”. Among these, “larger than 200 μm for at least 10% of individual cultured pancreatic islets: 5 points” is most preferable. […]
# [6] = culture without insert, days 1, 7 and 14
compound,measurement,setting,value
"CC(=O)N[C@@H](CCCNC(=N)N)C(=O)N[C@@H](C)C(=O)N[C@@H](CC(=O)O)C(=O)N[C@@H](C)C(=O)N[C@@H](CCCNC(=N)N)C(=O)N[C@@H](C)C(=O)N[C@@H](CC(=O)O)C(=O)N[C@@H](C)C(=O)N[C@@H](CCCNC(=N)N)C(=O)N[C@@H](C)C(=O)N[C@@H](CC(=O)O)C(=O)N[C@@H](C)C(=O)N[C@@H](CCCNC(=N)N)C(=O)N[C@@H](C)C(=O)N[C@@H](CC(=O)O)C(=O)N[C@@H](C)C(N)=O [Group A, Ac-(RADA)4-CONH2]",ammonia metabolic rate,"[1]; Table 4(a), day 1 of culture",45.0
same,ammonia metabolic rate,"[1]; Table 4(a), day 3 of culture",32.8
same,ammonia metabolic rate,"[1]; Table 4(a), day 5 of culture",20.4
same,ammonia metabolic rate,"[1]; Table 4(b), day 1 of culture",45.0
same,ammonia metabolic rate,"[1]; Table 4(b), day 3 of culture",32.8
same,ammonia metabolic rate,"[1]; Table 4(b), day 5 of culture",20.4
same,ammonia metabolic rate as compared with collagen type I (monolayer) (group B),"[1]; days 1, 3 and 5",significantly better
same,ammonia metabolic rate as compared with collagen type I (monolayer) (group B) and Matrigel (group C),"[1]; days 1, 3 and 5",significantly better
same,"diazepam metabolic rate as compared with collagen type I (monolayer) (group B), Matrigel (group C) and collagen sandwich (group D)","[2]; culture with insert, days 1, 7, 14 and 21",significantly better
same,diazepam metabolic rate as compared with collagen type I (monolayer) (group B),[2]; [6],significantly better
same,diazepam metabolic rate as compared with collagen type I (monolayer) (group B) and Matrigel (group C),[2]; [6],significantly better
same,formation of three-dimensional spheroid by hepatocytes,[3],formation of three-dimensional spheroid by hepatocytes was confirmed
same,production amount of insulin in the culture medium,"[4]; human islets (10 seeded), day 1 of culture, low glucose (100 g/l, 24 hours)",0.60 µg/L
same,production amount of insulin in the culture medium,"[4]; human islets, day 1 of culture, high glucose (450 g/l, 6 hours)",1.89 µg/L
same,production amount of insulin in the culture medium,"[4]; human islets, day 1 of culture, low glucose (after), 6 hours",1.13 µg/L
same,production amount of insulin in the culture medium,"[4]; human islets, day 3 of culture, high glucose (450 g/l, 6 hours)",1.68 µg/L
same,production amount of insulin in the culture medium,"[4]; human islets, day 3 of culture, low glucose (100 g/l, 24 hours)",0.58 µg/L
same,production amount of insulin in the culture medium,"[4]; human islets, day 3 of culture, low glucose (after), 6 hours",1.11 µg/L
same,production amount of insulin in the culture medium,"[4]; human islets, day 5 of culture, high glucose (450 g/l, 6 hours)",1.43 µg/L
same,production amount of insulin in the culture medium,"[4]; human islets, day 5 of culture, low glucose (100 g/l, 24 hours)",0.51 µg/L
same,production amount of insulin in the culture medium,"[4]; human islets, day 5 of culture, low glucose (after), 6 hours",1.10 µg/L
same,production amount of insulin in the culture medium,"[4]; human islets, day 7 of culture, high glucose (450 g/l, 6 hours)",0.76 µg/L
same,production amount of insulin in the culture medium,"[4]; human islets, day 7 of culture, low glucose (100 g/l, 24 hours)",0.41 µg/L
same,production amount of insulin in the culture medium,"[4]; human islets, day 7 of culture, low glucose (after), 6 hours",0.54 µg/L
same,amount of insulin secreted in high glucose concentration (response to glucose concentration),"[4]; human pancreatic islet, day 7 of culture",increased
same,pancreatic islet morphology: 1. shape,[5],5 (spherical: 5 points)
same,pancreatic islet morphology: 3. integrity,[5],5 (solid/compact: 5 points)
same,pancreatic islet morphology: sum of the evaluation values,[5],16 points
